Reference: PMC6270263, “Factors Influencing the Antifolate Activity of Synthetic Tea-Derived Catechins” (Molecules, 2013)

How the values were obtained:
[1] = molecular target: T1, bovine serum albumin (BSA) (Bos taurus, UniProt P02769); test: Competitive site-marker (warfarin, ibuprofen) binding to BSA; conditions: for Kd: BSA, 25 °C, read-out: Binding constant (KA) (converted)
T1 construct: purchased Sigma-Aldrich
Protocol: Next, the site selective binding of both EGCG and TMCG to BSA was analyzed. The capability of serum albumins to bind to aromatic and heterocyclic compounds is largely dependent on the existence of two major binding regions, namely site-I and site-II [25]. Warfarin and ibuprofen are fluorescence probes whose primary binding sites to BSA are site-I and site-II, respectively.
To identify the binding sites of EGCG and TMCG in BSA, the displacements of warfarin and ibuprofen (known to bind at site I and site II, respectively) were followed fluorometrically. Equimolar solutions of BSA and warfarin (5 × 10^−6 M each) were mixed for 1 h and titrated with EGCG and TMCG in separate experiments. Similar solutions containing equimolar ibuprofen and BSA were prepared and separately titrated with EGCG and TMCG to identify the binding sites of EGCG and TMCG with BSA. Titration was followed fluorometrically using an excitation wavelength of 280 nm.

[2] = molecular target: T1, bovine serum albumin (BSA); test: BSA binding by fluorescence quenching
From the text: Upon progressive additions of various concentrations of EGCG and TMCG to BSA, the emission intensity decreases, as shown in Figure 4(a). The quenching of the fluorescence intensity of BSA implies that the catechins bind at close proximity to the tryptophan and tyrosine residues and that the molecular arrangement of BSA is affected by the interactions. […] The binding constants (KA) for the BSA-EGCG and BSA-TMCG complexes are 1.54 × 10^7 M^−1 and 1.9 × 10^5 M^−1, respectively (Table 4), and their plots are shown in Figure 4(b). […] In light of these findings, it can be reasoned that the binding affinity to BSA is higher for the galloylated catechin than for the methylated one, which emphasises that the three phenolic groups can enhance hydrogen bonding between BSA and EGCG [25].
Fluorescence measurements were made on an automatic scanning Perkin-Elmer LS50B spectrofluorometer with 1.0 cm light path cells equipped with a 150 W xenon (XBO) light source. In all experiments, the fluorescence of BSA (5 × 10^−6 M) in 50 mM phosphate buffer of pH 7.5 was followed by excitation at 280 nm. The binding affinities of EGCG and TMCG with BSA in terms of binding constants were determined using the following equation [25]: log (F0−F)/F = log KA + n log [Q](1) where KA is the binding constant, n is the number of binding sites, F0 is the fluorescence intensity of free BSA and F is the consequent fluorescence upon the addition of catechins (Q). A plot of log (F0-F)/F against log [Q] was used to determine the values of KA and n from the intercept and the slope, respectively.

SK-MEL-28 melanoma cells = test: Apoptosis assay (cell death detection ELISA) with or without site markers; type: cell-based, human; conditions: SK-MEL-28, warfarin 10 µM
From the text: Serum is commonly used as a supplement in cell culture media. It supports cell growth and product formation by providing a broad spectrum of macromolecules, attachment factors, nutrients, and hormone and growth factors. The most commonly used animal serum supplement is foetal bovine serum, FBS (alternatively called foetal calf serum—FCS). Because BSA is a major component of FBS, the in vitro activity of catechins on tumour cells might be affected by their interaction with BSA. The effect of albumin binding on the biological activity of polyphenols is unclear. Does the bound ligand have some biological activity or does the polyphenol have to be in the free form to be active? To answer this question and to determine whether BSA-catechin interactions increase or decrease catechin anti-tumour activity, the proapoptotic activity of TMCG on SK-MEL-28 melanoma cells was probed in the presence of warfarin or ibuprofen [Figure 5(b)]. […] Because the binding of catechins to BSA seems to control drug availability, the lower affinity of TMCG and TMECG for serum albumins, with respect to natural tea catechins, might contribute to the high in vivo anti-tumour activity of these methylated synthetic catechins. […]
The human melanoma cell line SK-MEL-28 was obtained from American Type Culture Collection (ATCC, Manassas, VA, USA) and was maintained in Eagles’s Minimum Essential Medium (EMEM) supplemented with 10% (v/v) FBS and antibiotics at 37 °C in a humidified atmosphere containing 7.5% CO2. Cell viability was evaluated using the MTT cell proliferation assay. Cells were evaluated for apoptosis using a cell death detection ELISA (Cell Death Detection ELISAPLUS, Roche Diagnostics, Barcelona, Spain). […] The amount of nucleosomes is photometrically quantified at 405 nm by the peroxidase activity retained in the immunocomplexes. Apoptosis was defined as the specific enrichment of mono- and oligonucleosomes in the cytoplasm and was calculated by dividing the absorbance of treated samples with the absorbance of untreated samples after correcting for the number of cells. […]

T1 sequence (P02769 25-607): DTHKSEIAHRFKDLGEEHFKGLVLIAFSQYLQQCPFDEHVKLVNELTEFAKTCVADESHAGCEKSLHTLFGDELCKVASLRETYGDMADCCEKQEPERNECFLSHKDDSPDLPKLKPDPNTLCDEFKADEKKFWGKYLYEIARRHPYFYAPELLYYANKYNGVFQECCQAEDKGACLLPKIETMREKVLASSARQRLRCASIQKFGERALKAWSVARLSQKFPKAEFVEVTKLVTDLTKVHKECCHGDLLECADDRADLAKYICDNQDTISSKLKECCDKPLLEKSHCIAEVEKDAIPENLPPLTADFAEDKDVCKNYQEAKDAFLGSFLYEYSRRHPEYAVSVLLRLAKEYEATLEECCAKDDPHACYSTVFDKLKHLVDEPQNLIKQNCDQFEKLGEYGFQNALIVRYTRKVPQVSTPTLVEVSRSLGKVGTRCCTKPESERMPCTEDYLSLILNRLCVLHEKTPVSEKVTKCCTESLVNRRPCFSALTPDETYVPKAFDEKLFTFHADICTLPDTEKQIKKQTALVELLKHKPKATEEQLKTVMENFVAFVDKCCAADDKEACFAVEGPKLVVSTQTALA

- Kd ([1]; site marker: Blank): 5.26 µM
- Kd ([1]; site marker: Ibuprofen): 9.09 µM
- Kd ([1]; site marker: Warfarin): 20 µM
- Site selective binding to BSA ([1]; competition with warfarin (site-I) and ibuprofen (site-II)): higher specificity for site-I
- Kd ([2]; 25 °C, pH 7.5, no site marker, read-out: Binding constant (KA) for BSA-catechin complex (converted)): 5.26 µM
- Number of binding sites n ([2]; catechin-BSA complex, double logarithmic plot): approximately 1
SMILES: COc1cc(C(=O)O[C@H]2Cc3c(O)cc(O)cc3O[C@@H]2c2ccc(O)c(O)c2)cc(OC)c1OC [TMCG]
- Proapoptotic activity of TMCG in the presence of warfarin (SK-MEL-28 melanoma cells): significantly increased
